Test results as given in patent US20250177392A1, “BROAD SPECTRUM INHIBITORS OF CYTOMEGALOVIRUS” (MICROBIOTIX, INC., priority 2022, published 2025).

What was measured:
Format in all cases: cell-based, Human cytomegalovirus
AD169^R CMV virus [1] = experiment: Plaque reduction assay, therapeutic treatment at 48 hpi; conditions: Human betaherpesvirus 5, AD169, ARPE-19, read-out: IC50 of plaque reduction (>5,000 μm^2 and >10,000 μm^2)
Description: (§1) FIG. 8A-H are fluorescence images (A & B) and graphs showing that NAPA compounds MBX-4992 and MBXC-4336 work in both prophylactic and therapeutic settings to inhibit HCMV infection. ARPE-19 cells (A to D) and NHDF cells (E and F) treated with increasing concentrations (0, 1, 5, 20, and 50 μM) of MBX-4992, MBXC-4336, or ganciclovir (2.5 μM) were infected with AD169^R (MOI 0.025) and analyzed for viral plaques of >5,000 μm^2 (C and E) and >10,000 μm^2 (D and F) based on GFP fluorescence. The representative images of plaques from AD169^R-infected ARPE-19 cells treated MBX-4992, MBXC-4336, ganciclovir are shown (A and B). MBX-4992, MBXC-4336 (G and H), and ganciclovir treatment at 48 hpi of AD169^R-infected ARPE-19 cells (MOI 0.025) were analyzed for virus plaques >5,000 μm^2 and >10,000 μm^2 at 10 dpi. The normalized plaque number was designated to be 100 based on plaques from DMSO treated cells. Statistical tests were performed using ordinary one-way ANOVA with multiple comparisons to DMSO treated cells as a control and a Dunnett's post-test; *, p<0.05; **, p<0.01; ***, p<0.001; ****, p<0.0001.
For therapeutic treatment, ARPE-19 cells (4×10^4) were plated in a 24-well plate. […] The cells were examined using brightfield and YFP fluorescence to quantify the number and plaques using the Celigo Cytometer at 14. […]

AD169^R (IE1 expression) = experiment: Western blot (immunoblot) of IE1 expression in AD169^R-infected cells
Description: The molecular weight markers and respective proteins are indicated.
FIGS. 12A and B are Western Blot assays showing that MBXC-4336 limits expression of IE1 in fibroblasts and epithelial cells. Total cell lysates from AD169^R-infected (MOI 0.2) NHDF (A) and ARPE-19 (B) cells pre-treated with DMSO, MBX-4336 (0, 1, 5, 10, or 20 μM), or heparin (50 μg/mL) collected at 48 hpi were subjected to Western blot analysis using a rabbit anti-IE-1 antibody (lanes 1-7) and an anti-GAPDH antibody (lanes 8-14) as a loading control. The molecular weight markers and respective proteins are indicated.
Total cell lysates from virus infected NHDF cells treated with compounds were created through SDS-lysis (10^4/100 uL of 1% SDS) of at least three rounds of heating at 95° C. for 3 min and vigorous agitation. The total cell lysates were resolved using an SDS-polyacrylamide gel (12.5%), transferred to a PVDF membrane using a semi-dry apparatus. The membrane was then incubated with 1% BSA/PBS for 1 hr at room temperature followed by incubation with anti-IE1 and anti-GAPDH. Finally, the respective secondary antibody conjugated with HRP was incubated with membrane followed by detection using ECL reagents (Millipore).
Next, inhibition of the expression of IE1 in AD169^R-infected cells treated with MBX-4992 was examined by immunoblot analysis (FIG. 4E). […] Collectively, these findings further indicate that MBX-4992 effectively prevents the expression of the immediate-early genes during a CMV infection.

AD169^R CMV virus [2] = experiment: Plaque reduction (dissemination) assay, prophylactic treatment
Description: as §1
For the prophylactic treatment analysis, the plaque assay was performed on ARPE-19 and NHDF cells (4×10^4) in a 24-well plate. The cells were pretreated for 1 hour with either MBX-4992 or MBXC-4336 (1-50 μM), DMSO, or ganciclovir (2.5 μM) and followed by virus infection with AD169^R. Following a 2-hour incubation at 37° C., the inoculum was removed and cells were overlaid with 1% low melt sea agarose. Upon solidification of the agarose, MBX-4992, MBXC-4336, DMSO, or ganciclovir in media was added at the indicated concentration. The drugs were replaced every 3 days. The cells were examined using Brightfield and GFP fluorescence to quantify the number and size of virus plaques using a Celigo Cytometer at 10 dpi.
To address whether NAPA compounds can limit virus dissemination in epithelial cells, we analyzed the inhibitory properties of MBX-4992 and MBXC-4336 using a plaque reduction assay by designating a cluster of virus infected cells as a virus plaque (Parsons et al., Antivir. Res., 193:105124 (2021)) The results are shown in FIG. 8A-H.
To evaluate the prophylactic function of the NAPA compounds, ARPE-19 cells and NHDF cells treated with DMSO, MBX-4992, MBXC-4336 (0-50 μM), or ganciclovir (2.5 μM) were infected with AD169^R CMV virus and analyzed for virus plaques at 10 dpi based on GFP fluorescence (FIG. 8A-F). A cluster of virus infected cells was designated a viral plaque based on an average cluster area of 5,000 μm^2 or 10,000 μm^2 (FIG. 8A-B) using a Celigo cytometer.

[3] = Human betaherpesvirus 5, AD169, ARPE-19, read-out: IC50 of virus plaque reduction
[4] = Human betaherpesvirus 5, AD169, Fibroblast, read-out: IC50 of virus plaque reduction

Compound	IC50 (AD169^R CMV virus [1]) [µM]	IE1 expression by immunoblot (AD169^R (IE1 expression); NHDF cells, 24 hpi, MBX-4992 1-10 μM, ganciclovir 5 μM, convallotoxin 0.01 μM)	IC50 (AD169^R CMV virus [2]; [3]) [µM]	IC50 (AD169^R CMV virus [2]; [4]) [µM]	IE1 expression by immunoblot (AD169^R (IE1 expression); NHDF and ARPE-19 cells, 48 hpi (FIG. 12))
Cc1nc(Nc2ccc(NC(=O)c3ccco3)cc2)cc(N2CCCC2)n1 [MBX-4992]	~9	concentration dependent decrease in IE1 expression	6.5	12	–
Cc1nc(Nc2cccc(NC(=O)c3ccco3)c2)cc(N2CCCCC2)n1 [MBXC-4336]	~9	–	1.7	4	effectiveness of MBXC-4336 was validated
